For assay [1], the target named is T1, Thromboxane A2 receptor (Homo sapiens, UniProt P21731).
T1 sequence (P21731 whole entry): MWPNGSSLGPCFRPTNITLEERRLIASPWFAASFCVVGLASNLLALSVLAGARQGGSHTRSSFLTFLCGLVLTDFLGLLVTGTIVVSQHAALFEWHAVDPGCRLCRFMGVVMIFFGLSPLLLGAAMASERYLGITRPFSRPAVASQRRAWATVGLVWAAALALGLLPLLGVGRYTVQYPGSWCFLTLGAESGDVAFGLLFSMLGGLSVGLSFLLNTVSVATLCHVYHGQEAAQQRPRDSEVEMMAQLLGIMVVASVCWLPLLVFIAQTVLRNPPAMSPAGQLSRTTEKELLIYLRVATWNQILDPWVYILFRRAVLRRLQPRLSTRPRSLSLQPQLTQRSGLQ
It is filed as functional, cell-based.

Assay [2] concerns the target Beta-2 adrenergic receptor (Homo sapiens, UniProt P07550). It is filed as functional, cell-based.
Assay [3] concerns the target T2, 5-hydroxytryptamine receptor 1A (Homo sapiens, UniProt P08908).
T2 sequence (P08908 whole entry): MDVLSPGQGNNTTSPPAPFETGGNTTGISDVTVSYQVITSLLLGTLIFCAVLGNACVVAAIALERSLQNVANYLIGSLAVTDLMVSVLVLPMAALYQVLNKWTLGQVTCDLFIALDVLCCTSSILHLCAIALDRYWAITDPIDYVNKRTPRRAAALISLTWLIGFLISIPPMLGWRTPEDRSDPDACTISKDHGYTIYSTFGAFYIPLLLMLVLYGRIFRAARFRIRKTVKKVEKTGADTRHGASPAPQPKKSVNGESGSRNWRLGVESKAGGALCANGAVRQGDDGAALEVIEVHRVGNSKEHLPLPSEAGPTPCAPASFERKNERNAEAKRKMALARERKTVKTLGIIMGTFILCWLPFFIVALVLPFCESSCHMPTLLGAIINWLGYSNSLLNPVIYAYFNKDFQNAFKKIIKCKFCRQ
It is filed as functional, cell-based.

In assay [4] the target is T3, Alpha-1A adrenergic receptor (Homo sapiens, UniProt P35348).
T3 sequence (P35348 whole entry): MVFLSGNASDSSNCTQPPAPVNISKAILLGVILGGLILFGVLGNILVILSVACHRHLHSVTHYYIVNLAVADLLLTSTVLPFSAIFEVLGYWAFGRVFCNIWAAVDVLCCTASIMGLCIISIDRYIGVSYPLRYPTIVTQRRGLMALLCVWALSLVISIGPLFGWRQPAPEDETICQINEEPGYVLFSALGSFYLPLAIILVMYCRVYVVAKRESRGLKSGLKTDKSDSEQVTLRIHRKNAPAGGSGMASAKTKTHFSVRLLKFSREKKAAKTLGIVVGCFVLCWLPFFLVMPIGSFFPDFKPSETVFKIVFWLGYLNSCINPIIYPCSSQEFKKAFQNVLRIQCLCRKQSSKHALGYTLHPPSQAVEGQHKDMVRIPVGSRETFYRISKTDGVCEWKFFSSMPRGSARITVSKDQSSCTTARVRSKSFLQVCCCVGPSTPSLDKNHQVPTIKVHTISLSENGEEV
It is filed as functional, cell-based.

For assay [5], the target named is T3, Alpha-1A adrenergic receptor. It is filed as functional, cell-based. This is another data set of the same source.
In assay [6] the target is T1, Thromboxane A2 receptor.
The target of the next assay is Acetylcholinesterase (Homo sapiens, UniProt P22303). It is filed as functional.
Acetylcholinesterase, sequence (P22303 whole entry): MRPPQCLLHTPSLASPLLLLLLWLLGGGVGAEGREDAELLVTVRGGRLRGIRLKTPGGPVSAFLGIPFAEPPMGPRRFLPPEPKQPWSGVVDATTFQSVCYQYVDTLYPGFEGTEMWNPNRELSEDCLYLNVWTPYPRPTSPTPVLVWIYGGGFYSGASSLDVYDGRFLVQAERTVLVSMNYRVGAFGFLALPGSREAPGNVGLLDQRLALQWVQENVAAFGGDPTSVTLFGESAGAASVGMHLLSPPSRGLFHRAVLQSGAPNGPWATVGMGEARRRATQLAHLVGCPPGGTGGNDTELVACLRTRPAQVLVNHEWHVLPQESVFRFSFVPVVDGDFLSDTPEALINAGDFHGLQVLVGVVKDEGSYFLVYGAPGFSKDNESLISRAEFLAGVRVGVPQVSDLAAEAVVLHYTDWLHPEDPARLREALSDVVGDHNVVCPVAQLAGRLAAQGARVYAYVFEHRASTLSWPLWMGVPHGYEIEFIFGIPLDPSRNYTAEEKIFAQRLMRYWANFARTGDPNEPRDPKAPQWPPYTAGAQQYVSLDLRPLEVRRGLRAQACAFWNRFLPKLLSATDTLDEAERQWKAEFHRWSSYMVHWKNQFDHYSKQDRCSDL
The target in assay [7] is Gamma-aminobutyric acid receptor subunit alpha-1 (Rattus norvegicus, UniProt P62813).
Gamma-aminobutyric acid receptor subunit alpha-1, sequence (P62813 whole entry): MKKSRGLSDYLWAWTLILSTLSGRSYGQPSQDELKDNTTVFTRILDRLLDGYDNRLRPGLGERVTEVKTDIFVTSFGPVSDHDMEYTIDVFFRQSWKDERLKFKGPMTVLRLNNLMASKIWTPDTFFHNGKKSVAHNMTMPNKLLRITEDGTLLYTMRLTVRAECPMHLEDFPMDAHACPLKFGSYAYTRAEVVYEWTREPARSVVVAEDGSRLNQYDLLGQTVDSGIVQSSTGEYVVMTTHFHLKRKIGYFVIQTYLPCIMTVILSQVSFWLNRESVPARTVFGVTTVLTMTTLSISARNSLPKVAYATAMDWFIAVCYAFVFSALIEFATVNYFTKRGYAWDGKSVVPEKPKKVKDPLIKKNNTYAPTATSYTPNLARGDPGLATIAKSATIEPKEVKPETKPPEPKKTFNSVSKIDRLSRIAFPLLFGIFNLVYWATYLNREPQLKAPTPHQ
The next assay addresses Cannabinoid receptor 1 (Homo sapiens, UniProt P21554). It is filed as functional, cell-based.
Assay [8] concerns the target T4, Muscarinic acetylcholine receptor M2 (Homo sapiens, UniProt P08172).
T4 sequence (P08172 whole entry): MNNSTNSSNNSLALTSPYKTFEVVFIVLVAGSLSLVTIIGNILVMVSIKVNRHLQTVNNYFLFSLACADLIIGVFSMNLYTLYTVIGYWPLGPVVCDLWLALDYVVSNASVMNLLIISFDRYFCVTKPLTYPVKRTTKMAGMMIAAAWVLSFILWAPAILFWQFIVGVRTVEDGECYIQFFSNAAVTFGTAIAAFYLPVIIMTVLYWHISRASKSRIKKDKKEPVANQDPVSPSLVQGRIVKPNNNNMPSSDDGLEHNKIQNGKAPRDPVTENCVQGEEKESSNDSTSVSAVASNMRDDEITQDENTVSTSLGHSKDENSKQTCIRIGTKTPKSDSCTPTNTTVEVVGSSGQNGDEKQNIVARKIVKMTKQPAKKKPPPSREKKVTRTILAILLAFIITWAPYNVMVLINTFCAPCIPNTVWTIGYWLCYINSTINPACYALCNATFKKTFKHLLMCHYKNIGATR
It is filed as functional, cell-based.

Another assay concerns the target T5, Adenosine receptor A3 (Homo sapiens, UniProt P0DMS8).
T5 sequence (P0DMS8 whole entry): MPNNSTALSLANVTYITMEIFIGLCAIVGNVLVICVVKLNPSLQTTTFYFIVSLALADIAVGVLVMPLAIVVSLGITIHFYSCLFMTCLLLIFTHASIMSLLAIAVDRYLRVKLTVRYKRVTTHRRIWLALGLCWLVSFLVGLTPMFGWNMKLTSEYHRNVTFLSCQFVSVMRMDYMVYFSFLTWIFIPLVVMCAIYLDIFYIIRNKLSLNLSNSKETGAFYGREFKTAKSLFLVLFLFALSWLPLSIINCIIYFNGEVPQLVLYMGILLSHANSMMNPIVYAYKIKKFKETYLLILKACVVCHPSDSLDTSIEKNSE

We go through five compounds from ChEMBL document CHEMBL5291721, “A preclinical secondary pharmacology resource illuminates target-adverse drug reaction associations of marketed drugs” (Nat Commun, 2023).

As a reminder, the AC50 is the concentration at which the activity in the assay is half-maximal. Read a high AC50 as activity only at high concentration.

Where only a bound is given, the exact number is not on record here.
Also: assay procedure not described here.

Cannabinoid receptor 1, sequence (P21554 whole entry): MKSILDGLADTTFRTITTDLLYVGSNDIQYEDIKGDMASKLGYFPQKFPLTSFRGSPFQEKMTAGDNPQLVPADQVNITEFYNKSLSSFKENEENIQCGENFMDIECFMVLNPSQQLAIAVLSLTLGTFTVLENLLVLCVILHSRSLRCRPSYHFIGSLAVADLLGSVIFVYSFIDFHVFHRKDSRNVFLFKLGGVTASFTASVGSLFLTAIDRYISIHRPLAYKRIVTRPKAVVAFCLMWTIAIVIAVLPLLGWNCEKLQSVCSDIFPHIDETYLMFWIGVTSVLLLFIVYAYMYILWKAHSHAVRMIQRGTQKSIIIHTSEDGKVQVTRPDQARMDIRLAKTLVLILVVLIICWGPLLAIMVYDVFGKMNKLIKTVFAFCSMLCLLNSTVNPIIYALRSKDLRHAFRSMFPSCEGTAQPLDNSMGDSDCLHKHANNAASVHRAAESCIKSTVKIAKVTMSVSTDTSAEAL
Beta-2 adrenergic receptor, sequence (P07550 whole entry): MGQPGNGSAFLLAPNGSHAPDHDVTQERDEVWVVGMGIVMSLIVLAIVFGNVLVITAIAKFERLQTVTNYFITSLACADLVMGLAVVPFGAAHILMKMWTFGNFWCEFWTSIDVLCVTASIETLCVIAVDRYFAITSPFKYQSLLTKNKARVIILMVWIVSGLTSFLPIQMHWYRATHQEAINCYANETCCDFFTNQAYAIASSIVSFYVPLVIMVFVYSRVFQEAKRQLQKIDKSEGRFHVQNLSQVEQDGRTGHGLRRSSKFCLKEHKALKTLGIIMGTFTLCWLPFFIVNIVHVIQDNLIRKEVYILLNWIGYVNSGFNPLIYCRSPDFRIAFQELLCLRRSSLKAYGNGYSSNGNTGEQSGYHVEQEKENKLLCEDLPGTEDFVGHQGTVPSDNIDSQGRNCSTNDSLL

Turning to `CC(=O)Oc1ccccc1C(=O)O` [ASPIRIN], the AC50 on Thromboxane A2 receptor [1] is > 30 µM; in assay [2] it was > 30 µM; in assay [3], > 10 µM; in assay [4] it was > 30 µM; in assay [5], > 30 µM; on Thromboxane A2 receptor [6] it was > 30 µM. Also, the concentration at half-maximal activity (AC50) on Acetylcholinesterase was > 30 µM; in [7], > 10 µM; on Cannabinoid receptor 1, > 30 µM; in assay [8], > 30 µM; at Adenosine receptor A3, > 30 µM.
For `CN(C)CCCC1(c2ccc(F)cc2)OCc2cc(C#N)ccc21` (stereo unspecified) [CITALOPRAM], the AC50 on Thromboxane A2 receptor [1] was > 30 µM; in assay [2], > 30 µM; in [3], > 10 µM; at Thromboxane A2 receptor [6] it was > 30 µM; on Acetylcholinesterase it was > 30 µM; in assay [7], > 10 µM. Besides, the concentration at half-maximal activity (AC50) on Cannabinoid receptor 1 and at Adenosine receptor A3 was > 30 µM in each case.
Regarding `O=C1[C@@H]2[C@H]3CC[C@H](C3)[C@@H]2C(=O)N1C[C@@H]1CCCC[C@H]1CN1CCN(c2nsc3ccccc23)CC1` [LURASIDONE], the concentration at half-maximal activity (AC50) at Thromboxane A2 receptor [1] is > 30 µM; in [2] it was > 30 µM; on Acetylcholinesterase it was > 30 µM; at Cannabinoid receptor 1, > 30 µM; at Adenosine receptor A3 it was 6.36 µM.
Regarding `CCOC(=O)[C@H](CCc1ccccc1)N[C@@H](C)C(=O)N1Cc2ccccc2C[C@H]1C(=O)O`, the AC50 was > 30 µM on Thromboxane A2 receptor [1]; > 30 µM in assay [2]; > 10 µM in assay [3]; > 30 µM in assay [4]; > 30 µM in [5]; > 30 µM on Thromboxane A2 receptor [6]. Moreover, the concentration at half-maximal activity (AC50) is > 30 µM on Acetylcholinesterase; > 10 µM in [7]; > 30 µM on Cannabinoid receptor 1; > 10 µM in assay [8]; > 30 µM at Adenosine receptor A3.
In the case of `NCC1(CC(=O)O)CCCCC1` [GABAPENTIN], the concentration at half-maximal activity (AC50) (at Thromboxane A2 receptor [1]; in assay [2]; in [3]; in assay [4]; in assay [5]; at Thromboxane A2 receptor [6]) was > 30 µM throughout. Besides, the half-maximal activity concentration (AC50) on Acetylcholinesterase is > 30 µM; in assay [7], > 10 µM; on Cannabinoid receptor 1 it was > 30 µM; in assay [8], > 30 µM; at Adenosine receptor A3, > 30 µM.
